Here are results for one molecule from patent US20240285661A1, “Inhibitor of Invasion of Virus to Cell” (TOYO SUGAR REFINING CO., LTD., priority 2021, published 2024).

Assay [1] has as its system pseudo SARS-CoV-2. Description: microbe, parasite or virus in culture. In kind it is cell-based. The conditions noted are these: Severe acute respiratory syndrome coronavirus 2, Caco-2 cells, read-out: Inhibition rate of invasion to cell (%).
Assay [2] has as its system pseudo SARS-CoV-2. Put plainly: microbe, parasite or virus in culture. In kind it is cell-based. The conditions noted are these: Severe acute respiratory syndrome coronavirus 2, A549, concentration 20 nM, read-out: Inhibition rate of invasion to cell (%).

Usually inhibition stands for the relative decrease from the control value, in per cent. As to `N=C(N)c1ccc2cc(OC(=O)c3ccc(N=C(N)N)cc3)ccc2c1` [Nafamostat], in assay [1] (concentration 0.16 nM), the inhibition at 0.00016 µM was found to be 40.4%. The inhibition at 0.0008 µM in assay [1] (concentration 0.80 nM) came out at 48.9%. Also, the inhibition at 0.1 µM in assay [1] (concentration 100 nM) stood at 76.1%. The inhibition at 0.02 µM in assay [2] is 49%.
